Laboratory results published in patent US9333199B2, “Methods of treatment of histamine H-4 receptor-related pruritus associated with nerve disorders” (BRIDGE PHARMA, INC., priority 2013, dated 2016).

Assays:
[1] = test system: histamine-induced pruritus; test: Antipruritic activity, histamine-induced pruritus in mice; assay type: in vivo, CD-1 mice; settings: for inhibition of pruritus following histamine injections (in words): intradermal histamine, Example 5, JNJ7777120 and desloratadine 20 mg/kg oral
Protocol: Antipruritic effects were tested in vivo in CD-1 mice, females, 10-12 weeks, according to methods known in the art. The hair was clipped over the rostral part of the back at the interscapular level of the mice one day before the dosing. Before the testing, the mice were placed in individual clear plastic cages for at least one hour for acclimation. After fasting for 1.5 hours, the animals were dosed orally with the test article, dissolved in a vehicle consisting of 1% methylcellulose/water, 10 mL/kg body weight. Sixty minutes after the oral dosing, an intradermal injection of histamine (300 nmol in 20 μl phosphate buffered saline (PBS), pH 7.4) was administered. Immediately after the histamine injection, the bouts of scratches were counted for 40 min. Scratching induced by the histamine vehicle PBS served as control.
Norketotifen was tested in escalating doses and in a supramaximal dose of 100 mg/kg.

[2] = Sedation in human subjects; assay type: in vivo; settings: doses of 5 mg and 10 mg, humans
[3] = Repeat-dose pharmacological and toxicological studies in dogs; assay type: in vivo; settings: daily doses up to 20 mg/kg/day
Excerpt: Dogs vomit spontaneously for a variety of benign reasons—to expel unwanted content from their stomach, as a result of gastric irritation or in response to colonic irritation. In recent toxicological studies in dogs of various drugs, including isomeric norketotifen, vomiting occurred in both control groups and drug groups and may have been treatment-related, rather than drug-related. The unexpectedly low systemic toxicity of norketotifen and the isomers thereof is believed to be due to low systemic (plasma) concentrations, caused by the fact that norketotifen and the isomers thereof are not circulating in plasma but are accumulating in the skin, which is the largest organ in the body.

[4] = test system: histamine-induced pruritus; settings: intradermal histamine, humans and mice; not tested in Example 5; cited from earlier work

## CN1CCN(C(=O)c2cc3cc(Cl)ccc3[nH]2)CC1 [JNJ7777120, reference compound]
[1]
  inhibition of pruritus following histamine injections (in words): potently inhibited

## O=C1Cc2ccccc2C(=C2CCNCC2)c2ccsc21 [Norketotifen, norketotifen]
[2]
  sedation in human subjects: do not produce sedation
[1]; 100 mg/kg oral, histamine 300 nmol intradermal, bouts counted 40 min
  inhibition of histamine-induced pruritus at supramaximal dose: complete inhibition
[1]; escalating oral doses, histamine 300 nmol intradermal
  inhibition of histamine-induced pruritus, escalating doses: dose-dependently inhibiting histamine-induced pruritus
[1]
  inhibition of pruritus following histamine injections (in words): potently inhibited
[3]
  sedation or other adverse events, chronic dosing: without causing sedation or other adverse events

## CC(C)(C(=O)O)c1ccc(C(O)CCCN2CCC(C(O)(c3ccccc3)c3ccccc3)CC2)cc1 (stereo not shown) [fexofenadine]
[4]
  inhibition of pruritus following histamine injections (in words), general statement: not inhibited
